From paper PMC6696208, “Antityrosinase, Antioxidant, and Cytotoxic Activities of Phytochemical Constituents from Manilkara zapota L. Bark” (Molecules, 2019)
Values joined by “and” are separate entries in the source; they are usually repeats but may differ in a detail not shown here. Equal entries are not always repeated. Where two headings read alike, the source gives them in different places. Marks after values point to notes of the source that are not given here.

Assays:
Mushroom tyrosinase [1] = biological target: T1, Mushroom tyrosinase (Agaricus bisporus, UniProt C7FF04); test: Kinetic analysis of tyrosinase inhibition, monophenolase activity (Lineweaver-Burk plots); assay type: biochemical; details: L-tyrosine 0-200 μM, samples 20-1000 μM
T1 sequence (G1K3P4 entry or part of it): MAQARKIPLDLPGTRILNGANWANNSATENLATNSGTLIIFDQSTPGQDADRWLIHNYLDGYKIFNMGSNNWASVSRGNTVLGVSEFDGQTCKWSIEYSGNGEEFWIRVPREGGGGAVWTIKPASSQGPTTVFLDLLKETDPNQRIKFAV
T1 sequence (C7FF04 1-392): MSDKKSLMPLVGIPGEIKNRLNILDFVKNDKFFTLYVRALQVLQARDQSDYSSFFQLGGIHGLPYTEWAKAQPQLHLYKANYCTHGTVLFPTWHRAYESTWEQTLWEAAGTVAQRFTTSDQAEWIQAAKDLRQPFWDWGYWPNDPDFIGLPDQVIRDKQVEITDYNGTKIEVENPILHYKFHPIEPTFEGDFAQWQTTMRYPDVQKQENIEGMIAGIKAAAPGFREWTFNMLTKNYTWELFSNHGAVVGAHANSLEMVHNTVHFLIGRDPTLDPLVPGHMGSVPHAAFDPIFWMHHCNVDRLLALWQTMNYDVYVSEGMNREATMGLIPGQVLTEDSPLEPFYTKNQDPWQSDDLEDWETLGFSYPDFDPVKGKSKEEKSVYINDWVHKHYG
Procedure: (§1) The kinetic analysis of tyrosinase inhibitory activity was performed with respect to both monophenolase and diphenolase activities. The concentration ranges of the samples were 20–1000 μM. Both L-tyrosine and L-DOPA were concentrated at 0, 25, 50, 100, and 200 μM, respectively. The inhibitory kinetics of the samples were analyzed using Lineweaver–Burk plots.

Mushroom tyrosinase [2] = biological target: T1, Mushroom tyrosinase; test: Kinetic analysis of tyrosinase inhibition, diphenolase activity (Lineweaver-Burk plots); assay type: biochemical; details: L-DOPA 0-200 μM, samples 20-1000 μM
Procedure: as §1

[3] = DPPH radical scavenging assay; details: mean ± SD of three replicates
Procedure: The DPPH radical scavenging activity was determined by a modified method based on a previously described procedure. Briefly, a solution containing 50 µL of sample (100 mg/mL) was dissolved in DMSO/ethanol (1:4 v/v) and 150 µL of 0.05 M DPPH solution in methanol. Then, the reaction mixture was mixed and was incubated in the dark for 30 min at 37 °C. The absorbance of the reaction mixture was measured at 517 nm. Trolox was used as a positive control. The DPPH scavenging effect was calculated according to the following equation:(3) DPPH radical scavenging activity (%)=[1−(As−Ab)/Ad]× 100. where As is the absorbance of the sample mixed with DPPH solution, Ab is the absorbance of the sample without DPPH solution, and Ad is the absorbance of DPPH solution without the sample.

[4] = ABTS radical scavenging assay; details: mean ± SD of three replicates
Procedure: The ABTS radical scavenging capacity was determined using a modified version of a previously described procedure. The stock solution included 100 mL of 7.0 mM ABTS solution in methanol and 100 mL of 2.4 mM aqueous solution of potassium persulfate. Then, the reaction mixture was left in the dark for 14 h at 37 °C. The solution of 1 mL of ABTS solution was diluted with 60 mL of absolute ethanol to determine an absorbance of 0.700 ± 0.001 units at 734 nm using a spectrophotometer. Next, 500 µL of the sample (100 mg/mL) was reacted with 500 µL of ABTS solution and the absorbance was measured at 734 nm after 7 min of incubation using a spectrophotometer. The results were compared with Trolox as a standard, and the percentage of scavenging activity was calculated according to the following equation:(4) ABTS radical scavenging activity (%)=[(Ac−As)/Ac]×100. where Ac is the absorbance of ABTS radicals with ethanol and As is the absorbance of ABTS radicals with the test sample or positive control.

[5] = FRAP assay (ferric reducing antioxidant power); details: FRAP value, expressed as ferrous sulphate equivalent, mean ± SD of three replicates
Procedure: FRAP assay was conducted using a modified version of a method originally reported in an earlier study. The FRAP reagent contained 25 mL of 0.3 M acetate buffer (pH 3.6), 2.5 mL of 20 mM ferric chloride solution, and 2.5 mL of 10 mM 2,4,6-tris(2-pyridyl)-1,3,5-triazine and was brought to a final volume of 50 mL using 40 mM HCl solution. Then, the FRAP reagent was put into a water bath for 30 min at 50 °C. Next, 600 μL of FRAP reagent was added to 25 μL of the sample (100 mg/mL). The absorbance was recorded at 595 nm after 4 min of incubation using a spectrophotometer. Trolox was used as a positive control. The ferric reducing capacity was expressed as a ferrous sulphate equivalent.

[6] = test system: BT474 breast carcinoma cell line; test: MTT cytotoxicity assay, BT474; assay type: cell-based; details: Homo sapiens, BT-474, 72 h
Procedure: (§2) Cytotoxic activity was evaluated in vitro using the microtitration colorimetric method of MTT reduction. In this study, five human carcinoma cell lines were used, including BT474 (ATCC® HTB20^TM), Chago-K1 (National Cancer Institute, Thailand), HepG2 (ATCC® HB8065^TM), KATO-III (ATCC® HTB103^TM), and SW620 (ATCC® CCL227^TM). Additionally, human diploid lung fibroblast (WI-38, ATCC® CCL75^TM) was used as the normal cell line for comparison with the carcinoma cell lines. The culturing of these cell lines was derived in complete medium, including Roswell Park Memorial Institute medium (RPMI-1640), fetal bovine serum (5%, v/v), 25 mM of 4-(2-hydroxyethyl)-1-piperazineethanesulfonic acid (HEPES), sodium bicarbonate (0.25%, w/v), and kanamycin (100 μg/mL). Doxorubicin was used as a positive control. Each well plate contained 198 μL of culture medium of cell lines and was incubated with 5% CO2 atmosphere for 24 h at 37 °C. Then, the culture cells were treated with 2 μL/well of the sample and incubated for 72 h at 37 °C. MTT solution (2 μL, 5 mg/mL in normal saline) was added into each well, and the plates were incubated for an additional 4 h. The supernatant was aspirated out. After that, a mixture of 25 μL of 0.1 M glycine and 150 μL of DMSO was added. The plates were shaken to dissolve the purple-blue crystal of formazan. Then, the absorbance was determined by a microplate reader at 540 nm. The relative cell survival as a percentage of the control (DMSO), which was set at 100%, was calculated using the following formula:(5) The cell survival (%)=[As/Ac] × 100. where As is the absorbance of the test sample and Ac is the absorbance of […].

[7] = test system: Chago-K1 lung bronchus carcinoma cell line; test: MTT cytotoxicity assay, Chago-K1; assay type: cell-based; details: Homo sapiens, ChaGo-K-1, 72 h
Procedure: as §2

[8] = test system: HepG2 liver carcinoma cell line; test: MTT cytotoxicity assay, HepG2; assay type: cell-based; details: Homo sapiens, 72 h
Procedure: as §2

[9] = test system: KATO-III gastric carcinoma cell line; test: MTT cytotoxicity assay, KATO-III; assay type: cell-based; details: Homo sapiens, 72 h
Procedure: as §2

[10] = test system: SW620 colon carcinoma cell line; test: MTT cytotoxicity assay, SW620; assay type: cell-based; details: Homo sapiens, SW-620, 72 h
Procedure: as §2

[11] = test system: WI-38 human diploid lung fibroblast; test: MTT cytotoxicity assay, WI-38 normal cell line; assay type: cell-based; details: 72 h
Procedure: as §2

tyrosinase = biological target: tyrosinase; parameters: method as in PMID 30364385; details: L-DOPA as substrate; read-out: IC50, antityrosinase; cited from earlier work
[12] = parameters: method as in PMID 30364385; details: read-out: IC50 for DPPH; cited from earlier work
[13] = parameters: method as in PMID 30364385; details: read-out: IC50 for ABTS; cited from earlier work

O=C1c2c(O)cc(O)cc2O[C@H](c2ccc(O)cc2)[C@H]1O [(+)-Dihydrokaempferol (4), (+)-dihydrokaempferol]
Type of inhibition, monophenolase activity (Mushroom tyrosinase [1]): competitive
Type of inhibition, diphenolase activity (Mushroom tyrosinase [2]): competitive
IC50 [3]: 2.21 ± 0.77 µM
IC50 [4]: 214.8 ± 0.51 µM
FRAP [5]: 6.23 ± 0.10 ^d μM
FRAP ([5]; listed as (+)-dihydrokaempferol (4)): 6.23 ± 0.10 µM
IC50 [6]: 11.7 ± 0.42 µM
IC50 [7]: 12.3 ± 0.73 µM
IC50 [8]: 13.7 ± 0.38 µM
IC50 [9]: 39.79 ± 0.38 µM
IC50 [10]: 41.1 ± 1.08 µM
IC50 [11]: > 347 µM

O=C1CC(c2ccccc2)Oc2ccc(O)cc21 (stereo not drawn) [6-Hydroxyflavanone (3), 6-hydroxyflavanone]
Type of inhibition, monophenolase activity (Mushroom tyrosinase [1]): competitive
Type of inhibition, diphenolase activity (Mushroom tyrosinase [2]): competitive
IC50 [3]: 3.21 ± 0.7 µM
IC50 [4]: 225.5 ± 0.95 µM
FRAP [5]: 4.12 ± 0.12 ^c μM
FRAP ([5]; listed as 6-hydroxyflavanone (3)): 4.12 ± 0.12 µM
IC50 [6]: 86.16 ± 0.45 µM
IC50 [7]: 57.7 ± 1.08 µM
IC50 [8]: 65.8 ± 2.37 µM
IC50 [9]: 88.8 ± 3.7 µM
IC50 [10]: 82.8 ± 1.33 µM
IC50 [11]: > 416 µM

COc1cccc2c1C(=O)c1c(O)c3c(c(O)c1C2=O)C[C@@](O)(C(=O)CO)C[C@@H]3O[C@H]1C[C@H](N)[C@H](O)[C@H](C)O1 [Doxorubicin, reference compound]
IC50 [6]: 1.21 ± 0.2 µM
IC50 [7]: 1.58 ± 0.4 µM
IC50 [8]: 2.7 ± 0.83 µM
IC50 [9]: 1.78 ± 0.83 µM
IC50 [10]: 1.82 ± 0.39 µM
IC50 [11]: > 184 µM

O=C1c2c(O)cc(O)cc2O[C@H](c2cc(O)c(O)c(O)c2)[C@H]1O [dihydromyricetin]
IC50 (tyrosinase): 3.33 µM
IC50 [12]: 12.4 µM
IC50 [13]: 3.41 µM

CC1(C)CC[C@]2(C)CC=C3[C@]4(C)CC[C@H]5C(C)(C)[C@@H](O)CC[C@]5(C)[C@H]4CC[C@@]3(C)[C@@H]2C1 [Taraxerol (6), taraxerol]
Type of inhibition, monophenolase activity (Mushroom tyrosinase [1]): noncompetitive
Type of inhibition, diphenolase activity (Mushroom tyrosinase [2]): uncompetitive
IC50 [3]: 16.3 ± 0.33 µM
IC50 [4]: 630.84 ± 0.54 µM
FRAP [5]: 1.46 ± 0.11 ^a μM
IC50 [6]: > 235 µM
IC50 [7]: > 235 µM
IC50 [8]: > 235 µM
IC50 [9]: > 235 µM
IC50 [10]: > 235 µM
IC50 [11]: > 235 µM

O=C(O)c1ccc(O)c(O)c1 [3,4-Dihydroxybenzoic acid (5), 3,4-dihydroxybenzoic acid]
Type of inhibition, monophenolase activity (Mushroom tyrosinase [1]): competitive
Type of inhibition, diphenolase activity (Mushroom tyrosinase [2]): competitive
IC50 [3]: 4.71 ± 0.1 µM
IC50 [4]: 290.1 ± 0.95 µM
FRAP [5]: 3.00 ± 0.40 ^b μM
IC50 [6]: 85.2 ± 3.96 µM
IC50 [7]: 79.2 ± 4.02 µM
IC50 [8]: 364.7 ± 2.27 µM
IC50 [9]: 507.5 ± 4.61 µM
IC50 [10]: 591.4 ± 0.71 µM
IC50 [11]: > 649 µM

Cc1c(C)c2c(c(C)c1O)CCC(C)(C(=O)O)O2 (stereo not drawn) [Trolox, reference compound]
IC50 [3]: 1.92 ± 0.22 µM
IC50 [4]: 188.4 ± 0.43 µM
FRAP [5]: 6.10 ± 0.28 μM and 6.10 ± 0.28 ^d μM

CC1(C)CC[C@]2(C)CC=C3[C@]4(C)CC[C@H]5C(C)(C)C(=O)CC[C@]5(C)[C@H]4CC[C@@]3(C)[C@@H]2C1 [Taraxerone (7), taraxerone]
Type of inhibition, monophenolase activity (Mushroom tyrosinase [1]): mixed
Type of inhibition, diphenolase activity (Mushroom tyrosinase [2]): mixed
IC50 [3]: 10.2 ± 0.4 µM
IC50 [4]: 334.8 ± 0.99 µM
FRAP [5]: 1.12 ± 0.13 ^a μM
IC50 [6]: 19.2 ± 0.4 µM
IC50 [7]: 26.8 ± 0.97 µM
IC50 [8]: 20.4 ± 1.43 µM
IC50 [9]: 26.5 ± 0.57 µM
IC50 [10]: > 234 µM
IC50 [11]: > 234 µM

CO[C@H]1CC[C@@]2(C)C(CC[C@@]3(C)C4=CC[C@]5(C)CCC(C)(C)CC5[C@@]4(C)CCC23)C1(C)C (stereo partly drawn) [Taraxerol methyl ether (1), taraxerol methyl ether]
Type of inhibition, monophenolase activity (Mushroom tyrosinase [1]): noncompetitive
Type of inhibition, diphenolase activity (Mushroom tyrosinase [2]): noncompetitive
IC50 [3]: 77.31 ± 0.6 µM
IC50 [4]: 520.22 ± 0.3 µM
FRAP [5]: 1.31 ± 0.16 ^a μM
IC50 [6]: 185 ± 1.61 µM
IC50 [7]: > 227 µM
IC50 [8]: > 227 µM
IC50 [9]: > 227 µM
IC50 [10]: > 227 µM
IC50 [11]: > 227 µM
melting point: 278 to 280 °C

C=C(C)[C@@H]1CC[C@]2(C)CC[C@]3(C)C(CCC4[C@@]5(C)CCC(OC(C)=O)C(C)(C)C5CC[C@]43C)C12 (stereo partly drawn) [Lupeol acetate (8), lupeol acetate]
Type of inhibition, monophenolase activity (Mushroom tyrosinase [1]): mixed
Type of inhibition, diphenolase activity (Mushroom tyrosinase [2]): uncompetitive
IC50 [3]: 87.1 ± 0.31 µM
IC50 [4]: 669.62 ± 0.42 µM
FRAP [5]: 1.28 ± 0.30 ^a μM
IC50 [6]: 60.2 ± 0.9 µM
IC50 [7]: 199.9 ± 0.3 µM
IC50 [8]: > 213 µM
IC50 [9]: 136.7 ± 0.66 µM
IC50 [10]: 182.7 ± 1.51 µM
IC50 [11]: > 213 µM
melting point: 210 to 212 °C
